Values of other authors as cited in patent US20060110448A1, “Combination of a macrolide and a local anesthetic for the treatment of dermatological diseases” (priority 2003, published 2006).

Test system: rat model of allogeneic kidney transplantation
Conditions: oral administration, suppression of systemic immune response

For C=CC[C@@H]1/C=C(\C)C[C@H](C)C[C@H](OC)[C@H]2O[C@@](O)(C(=O)C(=O)N3CCCC[C@H]3C(=O)O[C@H](/C(C)=C/[C@@H]3CC[C@@H](O)[C@H](OC)C3)[C@H](C)[C@@H](O)CC1=O)[C@H](C)C[C@@H]2OC [tacrolimus], the “minimum effective dose (MED)” value is given as 14 mg/kg.
